Assays:
[1] = target: T1, ΔTRα2 (T4 Inactivating Protein; TIP) (Rattus norvegicus, UniProt P63059); experiment: rT3 binding displacement in nuclei-free extracts of cultured rat astrocytes; details: ΔTRα2-containing nuclei-free astrocyte extracts; rT3 as ligand; read-out: Kd, displacement of rT3
T1 construct: ΔTRα2 is encoded by exons 8-10 resulting in an approximately 25 kd protein
Procedure: The properties of thyroid hormone binding to non-nuclear components of the cell were examined using ΔTRα2 (T4 Inactivating Protein; TIP)-containing, nuclei-free extracts of cultured rat astrocytes. […] Both rT3 and T4 specifically displace rT3 with Kd's of approximately 0.3-0.5 nM.

[2] = target: binding of p29^GFP vesicles to F-actin; experiment: modified in vitro actin binding assay with p29^GFP-labeled vesicles; assay type: biochemical, rat; details: 0-100 nM, 20 minutes at 37° C.; read-out: EC50, increase in quantity of p29^GFP bound to F-actin
Procedure: To define the specific region(s) of the myosin V tail that interact with the p29 vesicle, a series of deletion mutations were created based on the dominant negative effect of exogenous myosin V tail on p29 vesicle binding. Competition analysis of the myosin V deletion mutations on T4-dependent binding of p29 vesicles to F-actin was performed using a modified in vitro assay in which a GFP-tagged p29 fusion protein (p29^GFP) replaced the radioaffinity labeled native p29 (Farwell et al., 1990, J. Biol. Chem. 265:18546-18553; Farwell et al., 1993, J. Biol. Chem. 268:5055-5062). This allowed direct evaluation of the binding of fluorescent vesicles to F-actin without affinity radiolabeling of the p29 and subsequent SDS-PAGE analysis.
Specific fluorescence at 510 nm (excitation, 488 nm) was then determined in the resuspended Triton-insoluble pellets.
To determine if the myosin V tail could be captured by the p29^GFP vesicle, an exogenous myosin V^tail was introduced into astrocytes constitutively expressing p29^GFP by infection with Ad5-ΔMyo V^tail virus particles and examined the effects of T4 on the binding of the myosin V^tail to immunopurified p29^GFP vesicles. Astrocytes expressing p29^GFP were grown in serum-free media and treated for 16 hours with 1 mM bt2cAMP and 100 nM hydrocortisone. A separate pool of astrocytes was treated in serum-free media supplemented with 10 μM retinoic acid. Cells were collected by scraping, and lysed by two freeze-thaw cycles. […] Triton-soluble (vesicle) and Triton-insoluble (F-actin) fractions were separated by microflige centrifugation. Triton pellets were resuspended in 300 μl of PBS and fluorescence at 510 nm (excitation 488 nm) determined and relative fluorescence was reported as arbitrary units. Cells were treated with 10 nM T4 for twenty minutes and a Triton-soluble supernatant was prepared. Vesicles containing the p29^GFP were immunoprecipitated by anti-GFP IgG (2 μg/ml) and protein in the immunoprecipitates were resolved by SDS-PAGE. Immunoblot analysis of vesicle-associated myosin V was performed using the anti-myosin V antibody directed against the C-terminus.
The quantity of each mutant protein synthesized was determined by [^35 S]-methionine incorporation. Astrocytes expressing p29^GFP were grown in serum-free media and treated for 16 hours with […] bt2cAMP and 100 nM hydrocortisone. p29^GFP V-lysate and F-lysate were prepared as described herein. 100 μg aliquots of p29^GFP V-lysate and F-lysate were pre-incubated, in triplicate, for 20 minutes at 37° C. in the presence of individual Δ myosin V mutant proteins (˜2-3 pmol polypeptide/50 μl mixture) were added to the actin-binding assay and pre-incubated for 20 minutes at 37° C. T4 (10 nM) was then added, the mixtures incubated for 20 minutes at 37° C., and F-actin bound, fluorescent p29^GFP vesicles were then isolated in the Triton-insoluble pellet.
V lysates prepared from astrocytes over-expressing p29^GFP were pre-incubated for 30 minutes at room temperature with antisera raised against ΔTRα2, ΔTRα1, the C-terminus of MyoV (encoded by MyoV^tail, FIG. 5), the coiled-coil region of MyoV (encoded by MyoV^coil-coil, FIG. 5) and GFP (green fluorescent protein). T4 (10 nM) and actin fiber-containing F-lysate was then added, the mixtures incubated at 37° C. for 20 minutes, and the Triton-insoluble fraction isolated by centrifugation.

[3] = tested on: binding of p29 vesicles to F-actin; experiment: in vitro actin binding assay with BrAc[125I]T4-labeled p29 vesicles; assay type: biochemical, rat; details: 10 nM hormone, 20 minutes at 37° C.
Procedure: Actin binding of the p29 vesicles was then initiated by addition of 10 nM T4, and the Triton-insoluble (F-actin bound) pellet was separated from the Triton-soluble (vesicle) fraction.
An in vitro binding assay was developed whose principle is based on the hormone dependent redistribution of affinity labeled p29 between the Triton-soluble (vesicle pool) and Triton-insoluble (F-actin cytoskeleton) fractions. The assay was used to examine the hormone dependent relationship between the p29-containing endosome and the F-actin cytoskeleton. Two different pools of astrocytes were prepared. […] The other astrocyte pool was used to prepare affinity BrAc [^125 I]T4-labeled p29 vesicles from thyroid-deficient cells (V-lysate; Farwell et al. 1990, J. Biol. Chem. 265:18546-18553). V-lysates were prepared from cAMP-stimulated astrocytes grown in serum-free media that were labeled with 2 nM BrAc[^125 I]T4 as described in Farwell et al. (1990, J. Biol. Chem. 265:18546-18553). […]
After the incubation, the mixtures were chilled on ice for 2 minutes, then Triton X-100® (0.5% v/v, final) was added and the soluble (Triton supernatant, vesicles) and insoluble (Triton pellet, F-actin) fractions were separated by microfuge centrifugation at 4° C. for 5 minutes. The distribution of [^125 I]-labeled p29 was then determined by SDS PAGE analysis.

[4] = tested on: cerebellar granule neurons; experiment: release of FM1-43-loaded synaptic vesicles from cerebellar granule neurons under continuous stimulus; assay type: cell-based, rat; details: 10 nM hormone; continuous stimulation by 50 mM KCl; vs no hormone controls; first order kinetics assumed
Procedure: Granule neurons were grown for 7 days and rendered hormone free by growth in serum-free medium as detailed above. Coverslips were then placed in a perfusion chamber, mounted on the stage of a laser scanning confocal microscope and perfused at 1 ml/min at 25° C. with perfusion buffer (119 mM NaCl, 2.5 mM KCl, 2 mM CaCl2, 2 mM MgCl2, 25 mM HEPES (pH 7.4), 30 mM glucose, and […] AP-5). The effects of different hormones on synaptic vesicle trafficking were then determined. […] Depolarizing KCl was then removed from the perfusion buffer and the cells were exposed to FM1-43 for an additional 30 seconds to insure complete loading of recycling synaptic vesicles. Loaded cells were then washed free of dye and the cells were perfused for ten minutes at rest.
Images of a single field of neuronal fibers were then taken immediately before adding a second depolarizing solution (perfusion buffer containing 50 mM KCl) and at one and two minutes after beginning the continuous stimulation by 50 mM KCl. Thirty to forty-five individual FM1-43 labeled nerve terminals were identified in the baseline images (taken prior to depolarization) and the change in fluorescence (DF) for each nerve terminal determined at the one and two minute time points. FIGS. 11A and 11B show the results of analysis of the hormone specificity of synaptic vesicle trafficking (FIG. 11A) and the influence of individual myo5a mutants (FIG. 11B) on synaptic vesicle transport in granule neurons.
To evaluate the role of myo5a in synaptic vesicle transport, three different myo5a constructs were introduced into the neurons by replication-deficient adenoviral vectors (Δmyo5a^tail(MyoV^tail), Δmyo5a^c-term(MyoV^1830)and ΔMyo5a^CC(MyoV^cc) see FIG. 5) as described above. […] Neurons were infected with purified Ad5-constructs (MOI=10) 48 hours prior to the synaptic vesicle trafficking study, and allowed to recover in hormone (T4) supplemented medium. […] This modest influence of the VBD mutant on synaptic vesicle retention is likely to be due to the loss of the kinesin-binding domain that limits its delivery to nerve terminals.

T1 sequence (P63059 whole entry, stated change not applied): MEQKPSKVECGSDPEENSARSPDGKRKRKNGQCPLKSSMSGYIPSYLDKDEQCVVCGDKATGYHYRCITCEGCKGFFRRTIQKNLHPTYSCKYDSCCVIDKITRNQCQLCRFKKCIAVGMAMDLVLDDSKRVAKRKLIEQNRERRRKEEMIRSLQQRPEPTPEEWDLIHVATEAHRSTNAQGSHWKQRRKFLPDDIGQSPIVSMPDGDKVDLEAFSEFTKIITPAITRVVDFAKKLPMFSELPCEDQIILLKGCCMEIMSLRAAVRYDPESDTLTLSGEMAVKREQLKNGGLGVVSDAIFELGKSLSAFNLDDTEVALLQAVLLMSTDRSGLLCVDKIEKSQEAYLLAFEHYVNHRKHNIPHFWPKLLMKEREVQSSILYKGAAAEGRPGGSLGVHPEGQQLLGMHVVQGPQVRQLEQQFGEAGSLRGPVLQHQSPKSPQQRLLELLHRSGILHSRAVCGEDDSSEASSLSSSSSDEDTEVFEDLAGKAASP

## N[C@@H](Cc1cc(I)c(Oc2cc(I)c(O)c(I)c2)c(I)c1)C(=O)O [T4, thyroxine]
[1]
  Kd: 0.3 to 0.5 nM
[2]
  EC50: ~0.5 nM
[3]
  radiolabeled p29 bound to the Triton insoluble, F-actin fraction: more than 70%
[4]
  decrease of the rate of FM1-43 release: 75%
